Measurements: patent US11083717B2, “Compositions and methods for drug sensitization of parasites” (The Texas A&M University System, priority 2015, dated 2021)
pIC50: −log10 of the molar value. Converted amounts (≈) assume the structure as drawn. Where two headings read alike, the source gives them in different places.

Legend:
[1] = MCLint in vitro intrinsic clearance, mouse (MLM); type: in vitro ADME
Kinetic solubility = type: physicochemical
human fibroblast = assay: in vitro; settings: human
S. cerevisiae = assay: in vitro; settings: Saccharomyces cerevisiae
Plasma protein binding = type: in vitro ADME; settings: mouse, mice, read-out: PPB (converted)
[2] = test system: Cryptosporidium parvum (CP); assay: Cell culture model of Cryptosporidium parvum infection in HCT-8 cells, real-time qRT-PCR; type: cell-based; settings: Cryptosporidium parvum
How it was run: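 HCT-8 monolayers were infected with C. parvum Iowa oocysts (1.5×10^4/well) for 3 h, then compounds were added after medium exchange and cells were incubated 41 h more (44 h total, 37 °C). Parasite Cp18S rRNA was measured by one-step SYBR qRT-PCR of lysates, normalized to host Hs18S, and % inhibition at the stated µM was derived from a standard curve.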

[3] = HCLint in vitro intrinsic clearance, human (HLM); type: in vitro ADME
Cryptosporidium parvum = test system: Cryptosporidium parvum
Procedure: The anticryptosporidial activity of the in vitro inhibitors was assessed in the IL-12 knockout mouse model that resembles the acute human disease (Ehigiator H N, Romagnoli P, Borgelt K, Fernandez M, McNair N, Secor W E, Mead J R. 2005. Mucosal cytokine and antigen-specific responses to Cryptosporidium parvum in IL-12p40 KO mice. Parasite Immunol. 27: 17-28; Campbell L D, Stewart J N, Mead J R. 2002. Susceptibility to Cryptosporidium parvum infections in cytokine- and chemokine-receptor knockout mice. J. Parasitol. 88:1014-1016). The protocol was approved by the Institutional Animal Care and Use Committees of Emory University, the AtlantaVAMedical Center, and Brandeis University. Mice (6 to 10 per group) were inoculated with 1,000 purified CP oocysts (Iowa isolate, from cattle). Treatment by gavage began 4 h postinfection with either vehicle (5% dimethyl sulfoxide (DMSO) in canola oil), 50-100 mg/kg compound, or 2,000 mg/kg paromomycin. Compounds were given for 7 days, and mice were sacrificed on day 8 (peak infection). Parasite load was quantified by fluorescence-activated cell sorting (FACS) assays for the presence of the oocysts in the feces at days 0, 4, and 7. Fecal pellets from individual mice were routinely collected daily and homogenized in adjusted volumes of 2.5% potassium dichromate. Samples were processed individually. Aliquots (200 ul) of vortexed samples were processed over microscale sucrose gradients as previously described (Arrowood M J, Hurd M R, Mead J R. 1995. A new method for evaluating experimental cryptosporidial parasite loads using immunofluorescent flowcytometry. J. Parasitol. 81:404-409). The oocyst-containing fraction was collected, washed, and treated with monoclonal antibody (OW5O-FITC) for 20 min. Samples were adjusted to 600 ul, and a portion (100 ul) was assayed with a 102-s sampling interval using logical gating of forward/side scatter and OW5O-FITC fluorescence signal on a Becton, Dickinson FACScan flow cytometer. Flow cytometry data were evaluated by analysis of variance (KaleidaGraph (Synergy Software, Reading Pa.); Microsoft Excel (Microsoft Corporation, Redmond, Wash.)).
NZ-366 (50 mg/kg) and NZ-369 (100 mg/kg) were administered via gavage in a single daily dose to IL-12 knockout mice that were infected with 1,000 CP oocysts. Additional control groups included those treated with single daily doses of vehicle, and paromomycin (Prm) (2,000 mg/kg), by oral gavage.

[4] = biological target: Human ether-a-go-go-related gene (hERG) (Homo sapiens, UniProt Q12809); assay: hERG test (potential cardiotoxicity); type: biochemical; settings: read-out: hERG (Abbvie)
hERG = hERG (Homo sapiens, UniProt Q12809); assay: hERG test (potential cardiotoxicity); type: biochemical; settings: human; read-out: hERG (Abbvie)
[5] = 44 h, CP in HCT-8 cells, 44 h infection, 50% reduction of parasite growth vs control, NA: not active, read-out: MIC50
[6] = NZ-366 50 mg/kg, NZ-369 100 mg/kg, paromomycin 2,000 mg/kg

Sequence of Human ether-a-go-go-related gene (hERG) (Q12809 whole entry): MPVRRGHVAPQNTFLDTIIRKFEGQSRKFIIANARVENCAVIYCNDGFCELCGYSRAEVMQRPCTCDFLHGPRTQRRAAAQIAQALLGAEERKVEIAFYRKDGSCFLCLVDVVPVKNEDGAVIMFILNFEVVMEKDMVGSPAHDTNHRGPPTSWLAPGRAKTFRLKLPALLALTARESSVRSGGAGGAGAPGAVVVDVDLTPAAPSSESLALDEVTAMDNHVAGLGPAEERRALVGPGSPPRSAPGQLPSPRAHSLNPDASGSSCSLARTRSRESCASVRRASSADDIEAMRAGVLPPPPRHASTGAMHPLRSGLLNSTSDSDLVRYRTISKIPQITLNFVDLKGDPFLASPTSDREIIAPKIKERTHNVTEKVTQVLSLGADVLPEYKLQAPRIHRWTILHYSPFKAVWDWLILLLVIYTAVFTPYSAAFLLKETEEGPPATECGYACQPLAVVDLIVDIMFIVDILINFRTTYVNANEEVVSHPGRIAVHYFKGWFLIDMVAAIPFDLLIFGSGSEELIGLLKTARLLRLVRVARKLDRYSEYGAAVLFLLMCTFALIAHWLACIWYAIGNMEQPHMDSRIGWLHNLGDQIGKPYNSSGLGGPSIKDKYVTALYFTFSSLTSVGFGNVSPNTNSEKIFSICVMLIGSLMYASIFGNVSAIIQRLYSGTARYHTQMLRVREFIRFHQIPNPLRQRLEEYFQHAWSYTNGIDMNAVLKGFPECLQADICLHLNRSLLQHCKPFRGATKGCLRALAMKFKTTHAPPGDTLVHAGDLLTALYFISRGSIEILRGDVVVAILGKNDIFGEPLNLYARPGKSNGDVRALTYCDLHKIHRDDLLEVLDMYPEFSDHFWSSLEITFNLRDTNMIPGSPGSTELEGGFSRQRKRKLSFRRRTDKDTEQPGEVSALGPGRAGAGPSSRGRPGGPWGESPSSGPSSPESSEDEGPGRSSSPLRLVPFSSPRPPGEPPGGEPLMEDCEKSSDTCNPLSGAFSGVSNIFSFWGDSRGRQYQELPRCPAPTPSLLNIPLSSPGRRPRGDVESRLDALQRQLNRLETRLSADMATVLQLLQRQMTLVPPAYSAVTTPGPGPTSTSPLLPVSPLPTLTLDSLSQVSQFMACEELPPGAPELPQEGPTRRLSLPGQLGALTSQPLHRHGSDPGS
Sequence of hERG (Q12809 whole entry): as above

| Compound | MCLint (mL/min/g liver), MLM [1] | Kinetic Sol. (Kinetic solubility) [µM] | concentrations at which not toxic, human fibroblast cytotoxicity testing (human fibroblast) [µM] | concentrations at which not toxic, S. cerevisiae cytotoxicity testing (S. cerevisiae) [µM] | pIC50 (in vitro; Saccharomyces cerevisiae) | pIC50 (in vitro; human) | fraction unbound (Plasma protein binding) | MIC50 [2, 5] [nM] | MIC50 ([2]; read-out: MIC50 (nM) (CP)) | HCLint (mL/min/g liver), HLM [3] | Mouse Model (Mead) DPI7 (Cryptosporidium parvum; @50 mg/kg, day 7 post infection) | overt toxicity in the treated infected mice (Cryptosporidium parvum; NZ-366 50 mg/kg, NZ-369 100 mg/kg, 7 days) | anticryptosporidial activity, fecal oocysts day 7 post infection (Cryptosporidium parvum; NZ-366 50 mg/kg, NZ-369 100 mg/kg, gavage, single daily dose, FIG. 1) | effectiveness compared with paromomycin after a single dose (Cryptosporidium parvum; [6]) | effectiveness compared with paromomycin over the course of the study (Cryptosporidium parvum; [6]) | pIC50 [4] | pIC50 (hERG) |
| --- | --- | --- | --- | --- | --- | --- | --- | --- | --- | --- | --- | --- | --- | --- | --- | --- | --- |
| CC(C)NC(=O)C(C)c1ccc(Oc2nc3ccc(Cl)cc3s2)cc1 (stereo not shown) [NZ-327, 2-{4-[(6-chloro-1,3-benzothiazol-2-yl)oxy]phenyl}-N-(propan-2-yl)propanamide] | MLM = 3.7 mL/min/g liver | 33 | ≥ 100 | ≥ 100 | < 4.00 | < 4.00 | 0.016 | 7 to 22 (≈ 0.00262 to 0.00825 µg/mL) | 7 to 22 (≈ 0.00262 to 0.00825 µg/mL) | HLM = 1.3 mL/min/g liver | – | – | – | – | – | – | – |
| CC(C(=O)N1CCN(C)CC1)c1ccc(Oc2nc3ccc(Cl)cc3s2)cc1 (stereo not shown) [NZ-366, 2-{4-[(6-chloro-1,3-benzothiazol-2-yl)oxy]phenyl}-1-(4-methylpiperazin-1-yl)propan-1-one] | MLM = 41 mL/min/g liver | 62 | 25 to 50 | 25 to 50 | 4.10 | 4.32 | 0.019 | 50 (≈ 0.0208 µg/mL) | 50 (≈ 0.0208 µg/mL) | HLM = 7.9 mL/min/g liver | DPI7 = 59% | no overt toxicity | have anticryptosporidial activity | more effective than paromomycin | equally as effective as paromomycin | 5.62 | – |
| CC(C(=O)NCCO)c1ccc(Oc2nc3ccc(Cl)cc3s2)cc1 (stereo not shown) [NZ-370, 2-{4-[(6-chloro-1,3-benzothiazol-2-yl)oxy]phenyl}-N-(2-hydroxyethyl)propanamide] | – | 40 | ≥ 100 | ≥ 100 | < 4.00 | < 4.00 | – | 50 to 60 (≈ 0.0188 to 0.0226 µg/mL) | 50 to 60 (≈ 0.0188 to 0.0226 µg/mL) | – | – | – | – | – | – | – | 4.52 |
| CC(C(=O)N1CCS(=O)(=O)CC1)c1ccc(Oc2nc3ccc(Cl)cc3s2)cc1 (stereo not shown) [NZ-553, 4-(2-{4-[(6-chloro-1,3-benzothiazol-2-yl)oxy]phenyl}propanoyl)-1λ^6,4-thiomorpholine-1,1-dione] | MLM = 1.28 mL/min/g liver | 100 | – | – | < 4.00 | 4.40 | 0.01 | 2 (≈ 0.000902 µg/mL) | 2 (≈ 0.000902 µg/mL) | HLM = 0.87 mL/min/g liver | – | – | – | – | – | 4.96 | – |
